The text below walks through data of PMC10382589, “In vitro and in vivo antiplasmodial evaluation of sugar-modified nucleoside analogues” (Scientific Reports, 2023).

The term IC50 denotes the concentration that inhibits the measured activity by half. For orientation: inhibition means how much of the control response was suppressed.

Entries after “also recorded” stand apart in the source; their conditions may differ. Where two headings read alike, the source gives them in different places.

Data set [1] relates to Mitochondrial membrane potential of the malaria parasites. Put plainly: JC-1 mitochondrial membrane potential assay. The data set is classed as cell-based, Plasmodium falciparum. Conditions: parasites treated with IC50 concentration for 3 h; untreated control 7.04 ± 1.30. An excerpt: Mitochondrial membrane potential is a marker of mitochondria’s functional status. Modification in mitochondrial membrane potential leading to mitochondrial dysfunction triggers cell death[25],[26]. Mitochondrial dysfunction was detected by using membrane permeant JC-1 dye. JC-1 is a cationic probe, due to electronegative environment inside the functionally active mitochondria with high Δψm, it aggregates in energised mitochondria and gives red color fluorescence at 590 nm, but in case of low Δψm (depolarized state), JC-1 remain in monomeric form and gives green color fluorescence at […]. Decreased ratio of red/green fluorescence intensity of compound treated sample as compared to untreated control indicates depolarized mitochondrial membrane[27],[28]. The damage to the parasite's mitochondria after treatment with compounds 7, 16, 17, 18 and 1 was measured according to the method reported previously. Because of lipophilic nature of the JC-1, it is cell permeable and emits a green signal (525 nm) in the cytoplasm, but the high transmembrane potential of functional mitochondria causes it to aggregate and emit a red signal (590 nm). […]. Mitochondrial membrane potential of the malaria parasites was determined by using MitoProbe™ JC-1 assay as described previously. In brief, trophozoite stage parasites (10–12% parasitemia) were treated with IC50 concentration of compounds 7, 16, 17, 18 and 1 for 3 h at 37 °C in the CO2 incubator. Samples were washed with 1 × PBS by centrifugation at 500 × g for 2 min at RT. Freshly prepared JC-1 dye was added to each sample with working concentration of 5 µg/mL. Incubation was done for 30 min at 37 °C in a CO2 incubator. Cells were washed twice with 1 × PBS. Spectrofluorometer was used to observe mitochondrial membrane potential by measuring fluoroscence intensities from the parasite lysate at wavelength of excitation (520 nm) and emission (590 nm) respectively. In vivo cell imaging was done with the help of Olympus fluoview 3000 confocal microscopy. Live cell imaging was observed under a 100X objective (oil immersion) and band pass filter at 355–460 nm. Experiments were repeated thrice and only representative figures are shown (Fig. 6).

Data set [2] has as its system embryonic kidney cell lines, HEK-293. The following applies: HEK-293 cells, MTT, 48 h incubation. How it is done:
Cytotoxicity against human embryonic kidney cell line (ATCC) was determined using MTT dye[35]. In order to measuring the cytotoxicity of the compounds we used MTT dye to detect live/dead cells. […] cells were stored at 37 °C, 5% CO2 in […] sterile culture flasks (Corning) in complete Dulbecco's Modified Eagle Medium (DMEM) culture medium (a) supplemented with 5% Fetal Bovine Serum (FBS), gentamicin ([…]), with changing the medium thrice a week. The monolayers were washed, counted, diluted in complete medium, distributed in 96-well microtiter plates (5000 cells/well), followed by incubation for another 24 h at 37 °C. The test compounds and DMSO were added in triplicate. After a 48 h incubation at 37 °C, the supernatant was removed and 100 µL of MTT solution in complete DMEM was added to each well, followed by 2 h incubation at 37 °C. The culture plates were read in a spectrophotometer (Tecan infinite M200, nanoquant, UK) with a 490 nm filter, and the cytotoxic concentrations were determined based on a dose response curve.

Data set [3] has as its system chloroquine resistant strain PfRKL-9. The data set can be described thus: SYBR green I based fluorescence growth inhibition assay, PfRKL-9. The data set is classed as cell-based. The following applies: Plasmodium falciparum, synchronized late trophozoite parasites, triplicate, mean ± SD, read-out: IC50 (µM) against PfRKL-9. How it is done:
(§1) The percent growth inhibition of the parasites was evaluated by SYBR Green assay.
(§2) Pf3D7 and PfRKL-9 were cultured by following procedure reported by Trager and Jensen[33]. […] In order to examine the morphological changes in the parasite, a blood film must be prepared. A thin blood film was air-dried, fixed with methanol, and allowed to dry before staining. […] Light microscopy analysis was carried out to evaluate the inhibitory effect of compounds at different concentrations against Pf3D7 and PfRKL-9.
(§3) SYBR green I based fluorescence assay was performed to measure the growth inhibition effect of the 26 compounds and further dose dependent assay against Pf3D7, and PfRKL-9 (Indian field strain, source- NIMR, New Delhi, India) was carried out at different concentrations. In brief, Pf3D7 and PfRKL-9 parasitized erythrocytes (trophozoite stage with 1% parasitemia) were diluted with noninfected erythrocytes at a constant 2% hematocrit in culture medium. Parasitized erythrocytes were treated with different concentrations of compounds ranging from 1 µM to 10 µM, whereas DMSO worked as a control. Triplicate wells of parasitized erythrocytes treated with compounds were seeded in 96 well microtiter plate following incubation at 37 °C for one cycle of parasite growth. […] Growth inhibition (%) was calculated as follows: % Inhibition = [1 − % Parasitemia (Treatment)/% Parasitemia (Control)] *100. Data were expressed as mean ± SD.

For the next data set, the system named is human RBCs. The data set can be described thus: Hemolytic activity on human RBCs. Conditions: 0.5-20 µM, 10% (v/v) RBC suspension, 1 h, absorbance at 415 nm. The data set is classed as cell-based. The procedure:
Effect of compounds on human RBCs was checked with the help of spectrophotometry by measuring the lysis of human red blood cells (hRBCs). Compounds were tested at 0.5, 1, 5, 10 and 20 μM concentrations with 10% (v/v) RBCs suspension for 1 h and observed the percentage of RBCs lysis by compounds 7, 16, 17, 18 and 1.
Human RBCs were from Rotary Blood Bank, Tughlakabad Institutional Area, New Delhi, India. Effect of compounds on RBCs was checked by hemolytic assay. In brief, RBCs suspension with 10% (v/v) washed with 1 × Phosphate-buffered saline (PBS) (pH 7.4) and again resuspended in 1 × PBS. RBCs suspension was incubated with compounds 7, 16, 17, 18 and 1 at different concentrations (0.5, 1, 5, 10 and 20 μM) for 1 h at 37 °C. Samples were centrifuged and supernatant was taken for absorbance at 415 nm. Triton X-100 with 1% (v/v) was used as a positive control. Experiment was done in triplicate.

For data set [4], the system named is Pf3D7 chloroquine-sensitive strain. The data set can be described thus: SYBR green I based fluorescence growth inhibition assay, Pf3D7. It counts as cell-based, Plasmodium falciparum. Conditions: for IC50 / inhibition at 1 µM: Plasmodium falciparum; for IC50: read-out: IC50 (µM) against Pf3D7; for growth inhibition against Pf3D7 (in words): screen at 1 µM and 10 µM, vs untreated control (Fig. S1); for inhibition at 1 µM: asynchronous culture, one intraerythrocytic cycle (Fig. S1), read-out: inhibition against Pf3D7 at 1 µM. How it is done: Growth of one intraerythrocytic cycle of Pf was monitored after treated with compounds whereas untreated parasites were considered as control.
as §1, §2
as §3, with “In brief, Pf3D7 and PfRKL-9 parasitized erythrocytes (trophozoite stage with 1% parasitemia) were diluted with noninfected erythrocytes at a constant 2% hematocrit in culture medium.” left out

The mark [5] stands for this setting: chloroquine-sensitive strain, synchronized late trophozoite parasites, SYBR Green, triplicate, mean ± SD.

Consider `Cc1cn([C@@H]2O[C@H](CN3C[C@@H](COC(c4ccccc4)(c4ccccc4)c4ccccc4)O[C@@H](n4ccc(=O)[nH]c4=O)C3)[C@H]3OC(C)(C)O[C@H]32)c(=O)[nH]c1=O` [Compound 1], for which, in data set [1], the JC-1 red/green ratio is on record as 5.69 ± 0.70. Also, the “Cell survival (%) at 500 µM” value in data set [2] came to 45%. For the same compound, the 50% inhibitory concentration (IC50) came to 1.83 ± 0.7 µM in data set [3] and 1.31 ± 1.1 µM in data set [4] (setting [5]). Further, the “lysis of human RBCs (in words)” value in the data set with human RBCs is recorded as “no significant lysis”. Besides, in data set [4], the “growth inhibition against Pf3D7 (in words)” value (from here on “growth inhibition”) was “significant growth inhibition in a dose dependent manner; also recorded: good/excellent inhibitory effect”.
For the compound `COc1ccc(C(OC[C@@H]2CN(C[C@H]3O[C@@H](n4cc(C)c(=O)[nH]c4=O)C[C@@H]3O)C[C@H](n3cc(C)c(=O)[nH]c3=O)O2)(c2ccccc2)c2ccc(OC)cc2)cc1` [Compound 3], the results for the half-inhibitory concentration (IC50) in data set [3] and in data set [4] (setting [5]) were 4.5 ± 2.5 µM and 1.19 ± 1.1 µM, respectively. Moreover, the “lysis of human RBCs (in words)” value with human RBCs is reported as “showed cytotoxicity towards human RBCs; also recorded: showed toxicity”. Also, in data set [4], the “growth inhibition” value is “remarkable actvity; also recorded: good/excellent inhibitory effect”.
For `Cc1cn([C@@H]2O[C@H](CN3C[C@@H](CN4C[C@@H](COC(c5ccccc5)(c5ccccc5)c5ccccc5)O[C@@H](n5cc(C)c(=O)[nH]c5=O)C4)O[C@@H](n4ccc(=O)[nH]c4=O)C3)[C@H]3OC(C)(C)O[C@H]32)c(=O)[nH]c1=O` [Compound 4], the “growth inhibition” value in data set [4] is reported as “good/excellent inhibitory effect”.
As to `Nc1ncnc2c1ncn2[C@@H]1O[C@H](CN2C[C@@H](CO)O[C@@H](n3cnc4c(=O)[nH]cnc43)C2)[C@@H](O)[C@H]1O` [Compound 5], the half-inhibitory concentration (IC50) in data set [3] stood at 6.23 ± 1.5 µM; in data set [4] (setting [5]), 1.34 ± 2.1 µM. Moreover, the “lysis of human RBCs (in words)” value with human RBCs is on record as “showed cytotoxicity towards human RBCs; also recorded: showed toxicity”. Moreover, the “growth inhibition” value in data set [4] is given as “remarkable actvity”.
Consider `CC1(C)O[C@@H]2[C@H](O1)[C@H](CS[C@@H]1O[C@H](CO)[C@@H](O)[C@H](O)[C@H]1O)O[C@H]2n1cnc2c(NC(c3ccccc3)(c3ccccc3)c3ccccc3)ncnc21` [Compound 8, 1-[2’,3’-O-Isopropylidene-5’-S-(β-D-glucopyranosyl)-5’-thio-α-L-lyxofuranosyl]-N-trityl-adenine], for which, in data set [4], the “growth inhibition” value is recorded as “did not significantly affect the antimalarial activity”.
Consider `CC(=O)OC[C@H]1O[C@@H](SC[C@@H]2O[C@@H](n3cnc4c(N)ncnc43)[C@H](O)[C@@H]2O)[C@H](OC(C)=O)[C@@H](OC(C)=O)[C@@H]1OC(C)=O` [Compound 9, 1-[5’-S-(2,3,4,6-Tetra-O-acetyl-β-D-glucopyranosyl)-5’-thio-α-L-lyxofuranosyl]-adenine], for which the “growth inhibition” value in data set [4] was “significant decrease in growth inhibitiory effect”.
`CCCSC[C@@H]1[C@@H](O[Si](C)(C)C(C)(C)C)[C@H](n2ccc(=O)[nH]c2=O)O[C@@H]1CO[Si](C)(C)C(C)(C)C` [Compound 10]: the inhibition at 1 µM in data set [4] fell in the range of 5 to 25%.
As for `CC(C)(C)[Si](C)(C)OC[C@H]1O[C@@H](n2ccc(=O)[nH]c2=O)[C@H](O[Si](C)(C)C(C)(C)C)[C@H]1CSCc1ccc2ccccc2c1` [Compound 11, 1-[3’-Deoxy-3’-C-(2-naphtyl)methylsulfanylmethyl-2’,5’-di-O-(tert-butyldimethylsilyl)-β-D-xylofuranosyl]-uracil], the inhibition at 1 µM in data set [4] was 5 to 25%.
`COC(=O)[C@H](CSC[C@@H]1[C@@H](O[Si](C)(C)C(C)(C)C)[C@H](n2ccc(=O)[nH]c2=O)O[C@@H]1CO[Si](C)(C)C(C)(C)C)NC(=O)OCC1c2ccccc2-c2ccccc21` [Compound 12, 1-[3’-Deoxy-3’-C-(N-Fmoc-cysteinemethyl ester)thiylmethyl-2’,5’-di-O-(tert-butyldimethylsilyl)-β-D-xylofuranosyl]-uracil]: the “growth inhibition” value in data set [4] is “good/excellent inhibitory effect”.
As to `CC(=O)OC[C@H]1O[C@@H](SC[C@@H]2[C@@H](O[Si](C)(C)C(C)(C)C)[C@H](n3ccc(=O)[nH]c3=O)O[C@@H]2CO[Si](C)(C)C(C)(C)C)[C@@H](OC(C)=O)[C@@H](OC(C)=O)[C@@H]1OC(C)=O` [Compound 15, 1-[3’-Deoxy-3’-C-(-2,3,4,6-tetra-O-acetyl-β-D-mannopyranosyl-sulfanylmethyl)-2’,5’-di-O-(tert-butyldimethylsilyl)-β-D-xylofuranosyl]-uracil], in data set [4], the inhibition at 1 µM is roughly 50% and the “growth inhibition” value is given as “more moderate growth inhibitory effect”.
Take `CCCCCCCCCCSC[C@@H]1[C@@H](O[Si](C)(C)C(C)(C)C)[C@H](n2cc(C)c(=O)[nH]c2=O)O[C@@H]1CO[Si](C)(C)C(C)(C)C` [Compound 19]: the inhibition at 1 µM in data set [4] was in the range of 5 to 25%.
On to `CCCCSC[C@H]1[C@@H]2O[Si](C(C)C)(C(C)C)O[Si](C(C)C)(C(C)C)OC[C@H]2O[C@H]1n1ccc(=O)[nH]c1=O` [Compound 20, 2’-Deoxy-2’-C-butylsulfanylmethyl-3’,5’-O-(1,1,3,3-tetraisopropyldisiloxane-1,3-diyl)-β-D-arabinofuranosyl-uracil], for which, in data set [4], the “growth inhibition” value is on record as “good/excellent inhibitory effect”.
With `CCN(CC)CCCC(C)Nc1ccnc2cc(Cl)ccc12` (stereo not shown) [chloroquine, reference compound], the IC50 in data set [4] came to 0.025 µM.
